According to US12667104B2, “Herbicidal compositions” (Yissum Research Development Company of the Hebrew …, priority 2019, dated 2026):

System: weeds
Assay: Weed control: small scale field experiment (1 m×1 m plots)
Format: in vivo
Conditions: for herbicidal effect category, 30 days: 30 days after the treatment; for herbicidal effect category, 30 days / herbicidal effect category, 12 days: 1 m×1 m plots, sprayed at 100 liter per hectare, concentration C (% by weight) per composition; for herbicidal effect category, 12 days: 12 days after the treatment; for herbicidal effect (in words): small scale field plots, summary of Table 1
Description: The active components(s), the concentration of the dissolved/suspended active components in the aqueous composition (C, expressed as % by weight of the composition) and the mixing ratios in case of multiple components are tabulated in Table 1.
Compositions 1-A to 1-L, 2-O, 2-P and 3-Q to 3-V were prepared by dissolving water-soluble powders or pellets in water, or adding to water sparingly soluble powders, or combination of both, at the concentrations set out in Table 1, to form sprayable solutions/suspensions.
The herbicidal compositions were sprayed at rate of application of 100 liter per hectare.
The herbicidal effect was determined 5, 12 and 30 days after the treatment. To this end, five categories were defined: • A category: complete control of the weeds was achieved. • B category: severe damage was caused to the weeds. • C category: some damage was caused to the weeds. • D category: minor damage was caused to the weeds. • E category: no damage was caused to the weeds.

How did the “herbicidal effect category, 30 days” value turn out when `[Na+].[OH-]` [Composition 1-A, NaOH] was run?
The value was “B+”.

`O=C([O-])O.[Na+]` [Composition 1-C, NaHCO3] was tested. Which “herbicidal effect category, 12 days” value did it give?
Its value is “D+”.

For `[K+].[OH-]` [Composition 1-D, KOH], which “herbicidal effect category, 30 days” value is on record?
The value was “B+”.

Which “herbicidal effect category, 30 days” value does the source give for `O=C([O-])O.[K+]` [Composition 1-F, KHCO3] here?
Its value is “C+”.

`[Ca+2].[OH-].[OH-]` [Composition 1-G, Ca(OH)2] was tested. Which “herbicidal effect category, 30 days” value did it give?
Its value is “D+”.

What about the “herbicidal effect (in words)” value of the same compound?
Its value is “poor activity”.

`O=C([O-])O.O=C([O-])O.[Ca+2]` [Composition 1-I, Ca(HCO3)2] was tested. Which “herbicidal effect category, 12 days” value did it give?
Its value is “D+”.

What about the “herbicidal effect (in words)” value of the same compound?
Its value is “poor activity”.
